Test results reported in patent publication US11008572B2, “Methods and compositions for modulating splicing” (SKYHAWK THERAPEUTICS, INC., priority 2017, dated 2021).
Where two headings read alike, the source gives them in different places.

Tests used:
[1] = test system: FOXM1^A2 mRNA and FOXM1^BC mRNA; assay: Splicing assay (FOXM1), qPCR of isoform mRNAs; type: cell-based; conditions: for IC50: FoxM1 BC mRNA decrease (exon included), read-out: Splice IC50 (nM), FoxM1 BC mRNA decrease (exon included); for EC50: read-out: Splice EC50 (nM), FoxM1 A mRNA increase (exon excluded)
Outline: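 Cells (20,000/well) treated at plating with compound, 8-point 4-fold series from 10 μM, 0.2% DMSO, 24 h at 37° C. Isoform mRNAs quantified by RT-qPCR against plasmid standards, normalized to PPIA and DMSO control; isoform ratio computed per concentration.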

A-673 cells = assay: Cell viability, crystal violet staining; type: cell-based; conditions: Homo sapiens, A673, cell viability
Outline: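 Readout is absorbance at 570 nm of crystal violet, taken up in 0.1 M sodium citrate in 50% ethanol after staining with 0.5% dye in 25% methanol. Plates held 5×10^3 cells per well, and compounds were added one day after seeding for 72 hours. Data are relative to vehicle, mean±SE.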

[2] = FoxM1 A mRNA increase (exon excluded), 0.1-1000 nM, 24 hours
[3] = read-out: A-673 IC50 (nM), Cell viability

Structure (SMILES)	IC50 ([1]; 24 h, 0.1-1000 nM, 24 hours) [nM]	EC50 [1, 2] [nM]	IC50 (A-673 cells; [3]) [nM]	IC50 [1] [nM]	EC50 [1] [nM]	IC50 (A-673 cells; read-out: A-673 IC50 (nM), cell viability) [nM]
Cc1nnn(-c2ccc(-c3ccc(N(C)[C@@H]4C[C@H]5CC[C@@H](C4)N5)nn3)c(O)c2)n1 [compound 234, 2-(6-(((1R,3s,5S)-8-azabicyclo[3.2.1]octan-3-yl)(methyl)amino)pyridazin-3-yl)-5-(5-methyl-2H-tetrazol-2-yl)phenol]	10 to 100	10 to 100	10 to 100	–	–	–
Cc1ccc(-c2ccc(-c3ccc(N(C)[C@@H]4C[C@H]5CC[C@@H](C4)N5)nn3)c(O)c2)nn1 [compound 239, 2-(6-(((1R,3s,5S)-8-azabicyclo[3.2.1]octan-3-yl)(methyl)amino)pyridazin-3-yl)-5-(6-methylpyridazin-3-yl)phenol]	< 10	< 10	251 to 500	–	–	–
CN(c1ccc(-c2ccc(-c3ccc(=O)n(C)c3)cc2O)nn1)[C@@H]1C[C@H]2CC[C@@H](C1)N2 [compound 241, 5-(4-(6-(((1R,3s,5S)-8-azabicyclo[3.2.1]octan-3-yl)(methyl)amino)pyridazin-3-yl)-3-hydroxyphenyl)-1-methylpyridin-2(1H)-one]	10 to 100	< 10	101 to 250	–	–	–
CN(c1ccc(-c2ccc(-n3cnc(C(F)(F)F)c3)cc2O)nn1)[C@@H]1C[C@H]2CC[C@@H](C1)N2 [compound 242, 2-(6-(((1R,3s,5S)-8-azabicyclo[3.2.1]octan-3-yl)(methyl)amino)pyridazin-3-yl)-5-(4-(trifluoromethyl)-1H-imidazol-1-yl)phenol]	101 to 250	10 to 100	251 to 500	–	–	–
CN(c1ccc(-c2ccc(-n3cncn3)cc2O)nn1)[C@@H]1C[C@H]2CC[C@@H](C1)N2 [compound 243]	10 to 100	< 10	10 to 100	–	–	–
Cc1cn(-c2ccc(-c3ccc(O[C@@H]4C[C@H]5CC[C@@H](C4)N5)nn3)c(O)c2)cn1 [compound 246, 2-(6-(((1R,3s,5S)-8-azabicyclo[3.2.1]octan-3-yl)oxy)pyridazin-3-yl)-5-(4-methyl-1H-imidazol-1-yl)phenol]	101 to 250	10 to 100	251 to 500	–	–	–
Cc1cnn(-c2ccc(-c3ccc(O[C@@H]4C[C@H]5CC[C@@H](C4)N5)nn3)c(O)c2)c1 [compound 249, 2-(6-(((1R,3s,5S)-8-azabicyclo[3.2.1]octan-3-yl)oxy)pyridazin-3-yl)-5-(4-methyl-1H-pyrazol-1-yl)phenol]	251 to 500	101 to 250	501 to 1000	–	–	–
Cc1ccn(-c2ccc(-c3ccc(O[C@@H]4C[C@H]5CC[C@@H](C4)N5)nn3)c(O)c2)n1 [compound 250, 2-(6-(((1R,3s,5S)-8-azabicyclo[3.2.1]octan-3-yl)oxy)pyridazin-3-yl)-5-(3-methyl-1H-pyrazol-1-yl)phenol]	101 to 250	10 to 100	501 to 1000	–	–	–
Oc1cc(-n2ccnn2)ccc1-c1ccc(O[C@@H]2C[C@H]3CC[C@@H](C2)N3)nn1 [compound 252, 2-(6-(((1R,3s,5S)-8-azabicyclo[3.2.1]octan-3-yl)oxy)pyridazin-3-yl)-5-(1H-1,2,3-triazol-1-yl)phenol]	251 to 500	101 to 250	501 to 1000	–	–	–
Oc1cc(-c2nnn[nH]2)ccc1-c1ccc(O[C@@H]2C[C@H]3CC[C@@H](C2)N3)nn1 [compound 254, 2-(6-(((1R,3s,5S)-8-azabicyclo[3.2.1]octan-3-yl)oxy)pyridazin-3-yl)-5-(1H-tetrazol-5-yl)phenol]	> 1000	> 1000	> 1000	–	–	–
Cc1ncc(-c2ccc(-c3ccc(O[C@@H]4C[C@H]5CC[C@@H](C4)N5)nn3)c(O)c2)o1 [compound 255, 2-(6-(((1R,3s,5S)-8-azabicyclo[3.2.1]octan-3-yl)oxy)pyridazin-3-yl)-5-(2-methyloxazol-5-yl)phenol]	101 to 250	101 to 250	501 to 1000	–	–	–
Cc1cc(-c2ccc(-c3ccc(O[C@@H]4C[C@H]5CC[C@@H](C4)N5)nn3)c(O)c2)on1 [compound 256, 2-(6-(((1R,3s,5S)-8-azabicyclo[3.2.1]octan-3-yl)oxy)pyridazin-3-yl)-5-(3-methylisoxazol-5-yl)phenol]	> 1000	> 1000	> 1000	–	–	–
CN(c1ccc(-c2ccc(-n3nccn3)cc2O)nn1)[C@@H]1C[C@H]2CCC[C@@H](C1)N2 [compound 275, 2-(6-(((1R,3s,5S)-9-azabicyclo[3.3.1]nonan-3-yl)(methyl)amino)pyridazin-3-yl)-5-(2H-1,2,3-triazol-2-yl)phenol]	< 10	< 10	< 10	–	–	–
Oc1cc(-c2cn[nH]c2)ccc1-c1ccc(O[C@H]2CC3CCC[C@@H](C2)N3)nn1 [compound 277, 2-(6-(((1R,3r,5S)-9-azabicyclo[3.3.1]nonan-3-yl)oxy)pyridazin-3-yl)-5-(1H-pyrazol-4-yl)phenol]	> 1000	> 1000	> 1000	–	–	–
CN(c1ccc(-c2ccc(-n3ccnn3)cc2O)nn1)[C@@H]1C[C@H]2CCC[C@@H](C1)N2 [compound 279, 2-(6-(((1R,3s,5S)-9-azabicyclo[3.3.1]nonan-3-yl)(methyl)amino)pyridazin-3-yl)-5-(1H-1,2,3-triazol-1-yl)phenol]	< 10	< 10	10 to 100	–	–	–
[2H]C([2H])([2H])n1ncc(-c2ccc(-c3ccc(N(C)C4CC5CCCC(C4)N5)nn3)c(O)c2)cc1=O [compound 281, 5-(4-(6-(((1R,3s,5S)-9-azabicyclo[3.3.1]nonan-3-yl)(methyl)amino)pyridazin-3-yl)-3-hydroxyphenyl)-2-(methyl-d3)pyridazin-3(2H)-one]	< 10	< 10	< 10	–	–	–
[2H]C([2H])([2H])n1ccc(-c2ccc(-c3ccc(N(C)C4CC5CCCC(C4)N5)nn3)c(O)c2)cc1=O [compound 284, 4-(4-(6-(((1R,3s,5S)-9-azabicyclo[3.3.1]nonan-3-yl)(methyl)amino)pyridazin-3-yl)-3-hydroxyphenyl)-1-(methyl-d3)pyridin-2(1H)-one]	< 10	> 1000	< 10	–	–	–
CN(c1ccc(-c2cc(F)c(-c3ccn(C)c(=O)c3)cc2O)nn1)[C@@H]1C[C@H]2CCC[C@@H](C1)N2 [compound 285, 4-(4-(6-(((1R,3s,5S)-9-azabicyclo[3.3.1]nonan-3-yl)(methyl)amino)pyridazin-3-yl)-2-fluoro-5-hydroxyphenyl)-1-methylpyridin-2(1H)-one]	< 10	> 1000	< 10	–	–	–
CN(c1ccc(-c2cc3oc(C(=O)NC4CC4)cc3cc2O)nn1)[C@@H]1C[C@H]2CCC[C@@H](C1)N2 [compound 296, 6-(6-(((1R,3s,5S)-9-azabicyclo[3.3.1]nonan-3-yl)(methyl)amino)pyridazin-3-yl)-N-cyclopropyl-5-hydroxybenzofuran-2-carboxamide]	10 to 100	< 10	101 to 250	–	–	–
[2H]C([2H])([2H])c1ncc(-c2cc(O)c(-c3ccc(N(C)[C@H]4C[C@]5(C)CC[C@](C)(C4)N5)nn3)cc2F)o1 [compound 304, 2-(6-(((1R,3s,5S)-1,5-dimethyl-8-azabicyclo[3.2.1]octan-3-yl)(methyl)amino)pyridazin-3-yl)-4-fluoro-5-(2-(methyl-d3)oxazol-5-yl)phenol]	< 10	> 1000	10 to 100	–	–	–
CN(c1ccc(-c2cc(F)c(-c3cc[nH]c(=O)c3)cc2O)nn1)[C@H]1C[C@]2(C)CCC[C@](C)(C1)N2 [compound 307, 4-(4-(6-(((1R,3s,5S)-1,5-dimethyl-9-azabicyclo[3.3.1]nonan-3-yl)(methyl)amino)pyridazin-3-yl)-2-fluoro-5-hydroxyphenyl)pyridin-2(1H)-one]	–	–	–	< 10	< 10	10 to 100
